“Also recorded” adds a separate entry of the source.

This assay has as its system NCI-60 cell lines. The class given is cell-based, human.
As to GLREVQD, the “Cell Line the peptide is associated with (peptide recovered from phage library selection on this NCI-60 cell line)” value is “HS 578 T Breast”.

Consider GLRGSVW, for which the “Cell Line (NCI-60 cell line the peptide is associated with)” value is listed as “COLO-205-Colon”.

GLRGVVK: the “Cell Line (NCI-60 cell line the peptide is associated with)” value was “HCT-116 Colon”.

In the case of GLRKAGF, the “Cell Line with which the peptide (and its tripeptide motif) is associated” value (“Cell Line with which the peptide” below) was “SR Leukemia”.

Take GLRLGVT: the “Cell Line (NCI-60 cell line the peptide is associated with)” value is given as “HT-29 Colon”.

Consider GLRPHGA, for which the “Cell Line (NCI-60 cell line the peptide and its motif are associated with)” value is listed as “UACC 257 Melanoma”.

As to GLRRDNG, the “Cell Line (NCI-60 cell line the peptide and its motif are associated with)” value is reported as “OVCAR-3 Ovarian”.

Regarding GLRTRQV, the “Cell Line with which the peptide” value was “Hop-92-Lung”.

For the substance GLRVYEP, the “Cell Line (NCI-60 cell line the peptide and its motif are associated with)” value is reported as “PC3 Prostate”.

Consider GLSRGVL, for which the “Cell Line the peptide is associated with (peptide recovered from phage library selection on this NCI-60 cell line)” value is recorded as “ACHN Renal”.

Consider GLVARVR, for which the “Cell Line (NCI-60 cell line the peptide and its motif are associated with)” value is reported as “SK-MEL-28 Melanoma”.

On to GLVASMP, for which the “Cell Line (NCI-60 cell line the peptide and its motif are associated with)” value is listed as “IGROV1 Ovarian”.

For the substance GLVGFTG, the “Cell Line with which the peptide” value is “Hop-62-Lung”.

GLVGGSS: the “Cell Line with which the peptide” value was “H460-Lung”.

GLVGRRA: the “Cell Line (NCI-60 cell line the peptide is associated with)” value is on record as “COLO-205-Colon”.

Regarding GLVGWGI, the “Cell Line the peptide is associated with (peptide recovered from phage library selection on this NCI-60 cell line)” value is “BT-549 Breast”.

In the case of GLVKLRS, the “Cell Line the peptide is associated with (peptide recovered from phage library selection on this NCI-60 cell line)” value is recorded as “MCF-7 Breast”.

As to GLVRCVL, the “Cell Line (NCI-60 cell line the peptide is associated with)” value is “COLO-205-Colon”.

Turning to GLVRGFP, the “Cell Line with which the peptide” value was “SR Leukemia”.

On to GLVRGTA, for which the “Cell Line with which the peptide” value is listed as “Molt-4-Leukemia”.

On to GLVRRVV, for which the “Cell Line the peptide is associated with (peptide recovered from phage library selection on this NCI-60 cell line)” value is reported as “CAIK-1 Renal”.

As for GLVSAFY, the “Cell Line with which the peptide” value was “Hop-62-Lung”.

Consider GLVSSLP, for which the “Cell Line (NCI-60 cell line the peptide is associated with)” value is listed as “HCT-15 Colon”.

Consider GLVSTLI, for which the “Cell Line the peptide is associated with (peptide recovered from phage library selection on this NCI-60 cell line)” value was “BT-549 Breast”.

For the substance GLVSVEA, the “Cell Line with which the peptide” value was “A549-Lung”.

As to GLVTAPL, the “Cell Line (NCI-60 cell line the peptide is associated with)” value is “COLO-205-Colon”.

Consider GLWAAVL, for which the “Cell Line the peptide is associated with (peptide recovered from phage library selection on this NCI-60 cell line)” value is given as “TK-10 Renal”.

Consider GLWYRAV, for which the “Cell Line (NCI-60 cell line the peptide and its motif are associated with)” value is “SK-MEL-28 Melanoma”.

In the case of GNGGARG, the “Cell Line (NCI-60 cell line the peptide and its motif are associated with)” value is reported as “M14 Melanoma”.

Regarding GNYGSVL, the “Cell Line with which the peptide” value is recorded as “Hop-92-Lung”.

As to GPFRAVP, the “Cell Line (NCI-60 cell line the peptide is associated with)” value was “COLO-205-Colon”.

Turning to GPGGSKR, the “Cell Line the peptide is associated with (peptide recovered from phage library selection on this NCI-60 cell line)” value was “SN12C Renal”.

For the substance GPSFDAK, the “Cell Line the peptide is associated with (peptide recovered from phage library selection on this NCI-60 cell line)” value was “RXF393 Renal”.

Consider GPSSAVE, for which the “Cell Line (NCI-60 cell line the peptide and its motif are associated with)” value was “OVCAR-5 Ovarian”.

For GPSSMTF, the “Cell Line (NCI-60 cell line the peptide is associated with)” value is “COLO-205-Colon”.

On to GPSVLDI, for which the “Cell Line (NCI-60 cell line the peptide and its motif are associated with)” value is on record as “OVCAR-8 Ovarian”.

As for GPSWATV, the “Cell Line (NCI-60 cell line the peptide is associated with)” value is “LOX-IMVI Melanoma”.

In the case of GQGAASL, the “Cell Line with which the peptide” value is listed as “H522-Lung”.

As to GRAGGNG, the “Cell Line (NCI-60 cell line the peptide and its motif are associated with)” value is recorded as “M14 Melanoma”.

For the substance GRAVWMV, the “Cell Line (NCI-60 cell line the peptide is associated with)” value is recorded as “KM-12C Colon”.

On to GRDWGGL, for which the “Cell Line the peptide is associated with (peptide recovered from phage library selection on this NCI-60 cell line)” value was “T-47D Breast”.

For the substance GRERVSH, the “Cell Line the peptide is associated with (peptide recovered from phage library selection on this NCI-60 cell line)” value is listed as “CAIK-1 Renal”.

For GRGDRGV, the “Cell Line (NCI-60 cell line the peptide and its motif are associated with)” value is “SK-MEL-28 Melanoma”.

In the case of GRGGSGY, the “Cell Line (NCI-60 cell line the peptide is associated with)” value is reported as “HT-29 Colon”.

For GRGLRTD, the “Cell Line (NCI-60 cell line the peptide is associated with)” value is given as “SF-295 CNS”.

On to GRGSFES, for which the “Cell Line with which the peptide” value was “SR Leukemia”.

As to GRGSGGF, the “Cell Line (NCI-60 cell line the peptide is associated with)” value was “LOX-IMVI Melanoma”.

On to GRGVGTD, for which the “Cell Line (NCI-60 cell line the peptide is associated with)” value is “HT-29 Colon”.

As for GRGVLAF, the “Cell Line (NCI-60 cell line the peptide is associated with)” value is “KM-12C Colon”.

As to GRGVTIW, the “Cell Line (NCI-60 cell line the peptide is associated with)” value is recorded as “HT-29 Colon”.

Take GRIRLSF: the “Cell Line the peptide is associated with (peptide recovered from phage library selection on this NCI-60 cell line)” value is on record as “RXF393 Renal”.

In the case of GRLAAGS, the “Cell Line the peptide is associated with (peptide recovered from phage library selection on this NCI-60 cell line)” value is “MCF-7 Breast”.

As for GRLAKSI, the “Cell Line (NCI-60 cell line the peptide and its motif are associated with)” value was “UACC 257 Melanoma”.

Regarding GRLAVVA, the “Cell Line (NCI-60 cell line the peptide is associated with)” value was “HT-29 Colon”.

Regarding GRLDAFG, the “Cell Line (NCI-60 cell line the peptide and its motif are associated with)” value is given as “SK-MEL-5 Melanoma”.

Turning to GRLLAGG, the “Cell Line with which the peptide” value was “Hop-92-Lung”.

On to GRLMPGG, for which the “Cell Line the peptide is associated with (peptide recovered from phage library selection on this NCI-60 cell line)” value is recorded as “ACHN Renal”.

With GRLRASL, the “Cell Line (NCI-60 cell line the peptide is associated with)” value is on record as “SF-295 CNS”.

Consider GRLRLRV, for which the “Cell Line (NCI-60 cell line the peptide is associated with)” value was “SF-295 CNS”.

On to GRLRLTD, for which the “Cell Line with which the peptide” value is on record as “HL-60-Leukemia”.

For GRLRPFS, the “Cell Line the peptide is associated with (peptide recovered from phage library selection on this NCI-60 cell line)” value is listed as “TK-10 Renal”.

As to GRLSFGV, the “Cell Line the peptide is associated with (peptide recovered from phage library selection on this NCI-60 cell line)” value was “ACHN Renal”.

Regarding GRLSRAP, the “Cell Line (NCI-60 cell line the peptide and its motif are associated with)” value is reported as “OVCAR-4 Ovarian”.

For GRLVWGL, the “Cell Line (NCI-60 cell line the peptide is associated with)” value is “HCT-116 Colon”.

GRLWGFW: the “Cell Line with which the peptide” value was “H226-Lung”.

Turning to GRLWSRV, the “Cell Line with which the peptide” value is given as “Hop-92-Lung”.

Turning to GRLWWHT, the “Cell Line with which the peptide” value is on record as “Hop-92-Lung”.

As for GRLWYVA, the “Cell Line (NCI-60 cell line the peptide and its motif are associated with)” value is on record as “DU-145 Prostate”.

For GRLYLGI, the “Cell Line (NCI-60 cell line the peptide is associated with)” value was “SF-295 CNS”.

For GRLYYYR, the “Cell Line with which the peptide” value is listed as “RPMI-8226-Leukemia”.

In the case of GRMLVSG, the “Cell Line (NCI-60 cell line the peptide and its motif are associated with)” value is listed as “OVCAR-4 Ovarian”.

Take GRPLGGR: the “Cell Line (NCI-60 cell line the peptide is associated with)” value is recorded as “HCT-15 Colon”.

As to GRRVSLV, the “Cell Line with which the peptide” value is “SR Leukemia”.

On to GRSSAGP, for which the “Cell Line the peptide is associated with (peptide recovered from phage library selection on this NCI-60 cell line)” value was “MDA-MB-231 Breast”.

For GRSSGME, the “Cell Line (NCI-60 cell line the peptide is associated with)” value is “HT-29 Colon”.

As to GRSSVSD, the “Cell Line (NCI-60 cell line the peptide and its motif are associated with)” value is on record as “OVCAR-8 Ovarian”.

For GRVDPVD, the “Cell Line the peptide is associated with (peptide recovered from phage library selection on this NCI-60 cell line)” value is on record as “T-47D Breast”.

On to GRVGRDG, for which the “Cell Line the peptide is associated with (peptide recovered from phage library selection on this NCI-60 cell line)” value was “A498 Renal”.

Consider GRVHLMP, for which the “Cell Line with which the peptide” value is “Hop-92-Lung”.

Take GRVKPGA: the “Cell Line (NCI-60 cell line the peptide and its motif are associated with)” value is reported as “DU-145 Prostate”.

On to GRVPGFE, for which the “Cell Line with which the peptide” value is “H322-Lung”.

As for GRVPTVV, the “Cell Line (NCI-60 cell line the peptide is associated with)” value is on record as “KM-12C Colon”.

For the substance GRVRETP, the “Cell Line (NCI-60 cell line the peptide and its motif are associated with)” value is given as “UACC62 Melanoma”.

Turning to GRVTGGR, the “Cell Line (NCI-60 cell line the peptide is associated with)” value is reported as “HCT-15 Colon”.

Consider GRVTLES, for which the “Cell Line (NCI-60 cell line the peptide and its motif are associated with)” value was “OVCAR-3 Ovarian”.

On to GRVTVAV, for which the “Cell Line with which the peptide” value is given as “A549-Lung”.

Regarding GRVTWRS, the “Cell Line (NCI-60 cell line the peptide and its motif are associated with)” value was “OVCAR-5 Ovarian”.

In the case of GRVVGEA, the “Cell Line with which the peptide” value was “H322-Lung”.

For GRWTGSS, the “Cell Line the peptide is associated with (peptide recovered from phage library selection on this NCI-60 cell line)” value was “MCF-7 Breast”.

As to GRYSLRS, the “Cell Line with which the peptide” value is listed as “RPMI-8226-Leukemia”.

In the case of GSARGML, the “Cell Line with which the peptide” value was “SR Leukemia”.

For GSGGANL, the “Cell Line (NCI-60 cell line the peptide and its motif are associated with)” value is reported as “DU-145 Prostate”.

Consider GSGGSVH, for which the “Cell Line with which the peptide” value is recorded as “Hop-92-Lung”.

On to GSGHSFA, for which the “Cell Line (NCI-60 cell line the peptide is associated with)” value is “KM-12C Colon”.

Regarding GSGILDL, the “Cell Line with which the peptide” value is recorded as “EKVX-Lung”.

Regarding GSGQLIP, the “Cell Line (NCI-60 cell line the peptide and its motif are associated with)” value is recorded as “M14 Melanoma”.

On to GSGRALA, for which the “Cell Line (NCI-60 cell line the peptide and its motif are associated with)” value was “SK-MEL-2 Melanoma”.

Take GSGRGVA: the “Cell Line with which the peptide” value is “Hop-92-Lung”.

Consider GSGRQLP, for which the “Cell Line the peptide is associated with (peptide recovered from phage library selection on this NCI-60 cell line)” value is given as “BT-549 Breast”.

For the substance GSGSSSR, the “Cell Line the peptide is associated with (peptide recovered from phage library selection on this NCI-60 cell line)” value is “TK-10 Renal”.

Turning to GSGSVRT, the “Cell Line the peptide is associated with (peptide recovered from phage library selection on this NCI-60 cell line)” value is “BT-549 Breast”.

In the case of GSGVRVS, the “Cell Line (NCI-60 cell line the peptide and its motif are associated with)” value is on record as “SK-MEL-28 Melanoma”.

In the case of GSGYFIT, the “Cell Line (NCI-60 cell line the peptide and its motif are associated with)” value is reported as 786-0 Renal.

Regarding GSITGGS, the “Cell Line (NCI-60 cell line the peptide and its motif are associated with)” value was “IGROV1 Ovarian”.

For the substance GSLGVSL, the “Cell Line with which the peptide” value is given as “H226-Lung”.

Regarding GSMHRVS, the “Cell Line (NCI-60 cell line the peptide is associated with)” value was “SF-295 CNS”.

Regarding GSNGSSH, the “Cell Line (NCI-60 cell line the peptide and its motif are associated with)” value is “OVCAR-8 Ovarian”.

For GSSACGA, the “Cell Line (NCI-60 cell line the peptide is associated with)” value was “U251 CNS”.

Consider GSSELSR, for which the “Cell Line (NCI-60 cell line the peptide and its motif are associated with)” value is “DU-145 Prostate”.

Regarding GSSGLLA, the “Cell Line the peptide is associated with (peptide recovered from phage library selection on this NCI-60 cell line)” value was “NCI/ADR-RES Breast”.

For the substance GSSHDAL, the “Cell Line (NCI-60 cell line the peptide is associated with)” value is given as “SNB-19 CNS; also recorded: SF-539 CNS”.

As for GSSLHLL, the “Cell Line with which the peptide” value was “RPMI-8226-Leukemia”.

Turning to GSSLSRP, the “Cell Line the peptide is associated with (peptide recovered from phage library selection on this NCI-60 cell line)” value is “RXF393 Renal”.

With GSSRPSI, the “Cell Line (NCI-60 cell line the peptide is associated with)” value is reported as “HCT-15 Colon”.

As to GSSRQFV, the “Cell Line with which the peptide” value is listed as “A549-Lung”.

For the origin of these results see patent US7781565B2 (priority 2006, dated 2010).
